Data from patent US12655116B2, “Substituted isophthalic acid diamides” (Bayer Aktiengesellschaft, priority 2020, dated 2026).

Columns and labels:
ABUTH [1] = assay: Pre-emergence herbicidal action against ABUTH; type: in vivo, Abutilon theophrasti; details: for Pre-emergence action against ABUTH (herbicidal activity) / pest or weed control at 80 g/ha: 80 g/ha, scored visually after 3 weeks vs untreated controls (100% = plants have died, 0% = like control plants); for pest or weed control at 80 g/ha / pest or weed control at 20 g/ha: Abutilon theophrasti, 504 h; for pest or weed control at 20 g/ha: read-out: Pre-emergence action against ABUTH (herbicidal activity in percent)
Summary of the method: (§1)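 Visual rating at 3 weeks vs untreated pots; 0–100% scale, 100% = plants died. Treatment: aqueous WP/EC spray onto covering soil, 600–800 l/ha, 0.2% wetter, seeds in sandy loam.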

DIGSA [2] = assay: Post-emergence herbicidal action against DIGSA; type: in vivo, Digitaria sanguinalis; details: 20 g/ha
Summary of the method: (§2)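 Greenhouse pot plants in sandy loam were sprayed at the one-leaf stage, 2 to 3 weeks after sowing, with WP or EC formulations as aqueous suspension or emulsion (600 to 800 l/ha water, 0.2% wetting agent). About 3 weeks later, damage was scored visually against untreated controls as % action (100% = dead, 0% = like control).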

LOLRI = assay: Pre-emergence herbicidal action against LOLRI; type: in vivo, Lolium rigidum; details: 80 g/ha; for pest or weed control at 80 g/ha: Lolium rigidum, 504 h
Summary of the method: as §1

ECHCG [3] = assay: Post-emergence herbicidal action against ECHCG; type: in vivo, Echinochloa crus-galli; details: for Post-emergence action against ECHCG in % / pest or weed control at 20 g/ha: dosage 20 g/ha
Summary of the method: as §2

DIGSA [4] = assay: Pre-emergence herbicidal action against DIGSA; type: in vivo, Digitaria sanguinalis
Summary of the method: as §1

VERPE [5] = assay: Post-emergence herbicidal action against VERPE; type: in vivo, Veronica persica; details: 20 g/ha
Summary of the method: as §2

VIOTR [6] = assay: Post-emergence herbicidal action against VIOTR; type: in vivo, Viola tricolor
Summary of the method: as §2

SETVI [7] = assay: Post-emergence herbicidal action against SETVI; type: in vivo, Setaria viridis
Summary of the method: as §2

ALOMY [8] = assay: Pre-emergence herbicidal action against ALOMY; type: in vivo, Alopecurus myosuroides; details: for Pre-emergence action against ALOMY (herbicidal activity) / pest or weed control at 80 g/ha: 80 g/ha, scored visually after 3 weeks vs untreated controls (100% = plants have died, 0% = like control plants)
Summary of the method: as §1

ECHCG [9] = assay: Pre-emergence herbicidal action against ECHCG; type: in vivo, Echinochloa crus-galli; details: 80 g/ha; for pest or weed control at 80 g/ha: Echinochloa crus-galli, 504 h
Summary of the method: as §1

AMARE [10] = assay: Pre-emergence herbicidal action against AMARE; type: in vivo, Amaranthus retroflexus; details: for pest or weed control at 20 g/ha / pest or weed control at 80 g/ha: Amaranthus retroflexus, 504 h
Summary of the method: as §1

VIOTR [11] = assay: Pre-emergence herbicidal action against VIOTR; type: in vivo, Viola tricolor
Summary of the method: as §1

PHBPU [12] = assay: Post-emergence herbicidal action against PHBPU; type: in vivo, Pharbitis purpurea
Summary of the method: as §2

MATIN [13] = assay: Pre-emergence herbicidal action against MATIN; type: in vivo, Matricaria inodora; details: for pest or weed control at 20 g/ha / pest or weed control at 80 g/ha: Tripleurospermum inodorum, 504 h
Summary of the method: as §1

PHBPU [14] = assay: Pre-emergence herbicidal action against PHBPU; type: in vivo, Pharbitis purpurea; details: dosage 80 g/ha; for pest or weed control at 80 g/ha: Ipomoea purpurea, 504 h
Summary of the method: as §1

AMARE [15] = assay: Post-emergence herbicidal action against AMARE; type: in vivo, Amaranthus retroflexus; details: 20 g/ha, visual assessment about 3 weeks after treatment, 100% = plants have died, 0% = like control plants; for pest or weed control at 20 g/ha: Amaranthus retroflexus, 504 h
Summary of the method: as §2

AVEFA = assay: Pre-emergence herbicidal action against AVEFA; type: in vivo, Avena fatua; details: for Pre-emergence action against AVEFA in % / pest or weed control at 80 g/ha: 80 g/ha, pre-emergence; for pest or weed control at 80 g/ha: Avena fatua, 504 h
Summary of the method: as §1

SETVI [16] = assay: Pre-emergence herbicidal action against SETVI; type: in vivo, Setaria viridis
Summary of the method: as §1

MATIN [17] = assay: Post-emergence herbicidal action against MATIN; type: in vivo, Matricaria inodora; details: Tripleurospermum inodorum, 504 h, dosage 20 g/ha
Summary of the method: as §2

VERPE [18] = assay: Pre-emergence herbicidal action against VERPE; type: in vivo, Veronica persica; details: Veronica persica, 504 h, dosage 80 g/ha
Summary of the method: as §1

ALOMY [19] = assay: Post-emergence herbicidal action against ALOMY; type: in vivo, Alopecurus myosuroides; details: visual assessment about 3 weeks after treatment vs untreated controls; for pest or weed control at 5 g/ha / pest or weed control at 20 g/ha: Alopecurus myosuroides, 504 h
Summary of the method: as §2

ABUTH [20] = assay: Post-emergence herbicidal action against ABUTH; type: in vivo, Abutilon theophrasti; details: Abutilon theophrasti, 504 h, visual assessment about 3 weeks after treatment vs untreated controls
Summary of the method: as §2

[21] = 20 g/ha, scored visually after 3 weeks, 100% = plants have died, 0% = like control plants
[22] = 20 g/ha, scored visually after 3 weeks vs untreated controls, 100% = plants have died, 0% = like control plants
[23] = 80 g/ha, scored visually after 3 weeks vs untreated controls (100% = plants have died, 0% = like control plants)
[24] = dosage 20 g/ha, scored visually after 3 weeks vs untreated controls, 100% = plants have died, 0% = like control plants
[25] = Alopecurus myosuroides, 504 h, pre-emergence
[26] = 80 g/ha, scored visually after 3 weeks vs untreated controls, 100% = plants have died, 0% = like control plants
[27] = Viola tricolor, 504 h, dosage 80 g/ha

Cn1nnnc1NC(=O)c1ccc(C(F)(F)F)c(C(=O)NCC(F)F)c1Cl [Example 1-134]
80%: Pre-emergence action against LOLRI in % (LOLRI) | Post-emergence action against VERPE in % (VERPE [5]) | Pre-emergence action against ALOMY (ALOMY [8]; [21]) | Post-emergence action against PHBPU in % (PHBPU [12]; dosage 5 g/ha) | Pre-emergence action against PHBPU in % (PHBPU [14]) | Pre-emergence action against AVEFA (AVEFA; [21])
90%: Pre-emergence action against ABUTH (herbicidal activity) (ABUTH [1]) | Post-emergence action against DIGSA (DIGSA [2]) | Post-emergence action against ECHCG in % (ECHCG [3]) | Pre-emergence action against DIGSA in % (DIGSA [4]; dosage 20 g/ha) | Post-emergence action against VIOTR in % (VIOTR [6]; 5 g/ha) | Post-emergence action against VIOTR in % (VIOTR [6]; 20 g/ha) | Post-emergence action against SETVI in % (SETVI [7]; dosage 5 g/ha) | Post-emergence action against SETVI in % (SETVI [7]; dosage 20 g/ha) | Pre-emergence action against VIOTR in % (VIOTR [11]; dosage 20 g/ha) | Post-emergence action against PHBPU in % (PHBPU [12]; dosage 20 g/ha) | Pre-emergence action against MATIN in % (MATIN [13]; dosage 20 g/ha) | Post-emergence action at 20 g/ha against AMARE in % (AMARE [15]) | Pre-emergence action against AVEFA in % (AVEFA) | Pre-emergence action against SETVI in % (SETVI [16]; dosage 20 g/ha)
100%: Pre-emergence action against DIGSA in % (DIGSA [4]; dosage 80 g/ha) | Pre-emergence action against ALOMY (herbicidal activity) (ALOMY [8]; pre-emergence) | Pre-emergence action against ECHCG in % (ECHCG [9]) | Pre-emergence action against AMARE in % (AMARE [10]; [22]) | Pre-emergence action against AMARE in % (AMARE [10]; [23]) | Pre-emergence action against VIOTR in % (VIOTR [11]; dosage 80 g/ha) | Pre-emergence action against MATIN in % (MATIN [13]; dosage 80 g/ha) | Pre-emergence action against SETVI in % (SETVI [16]; dosage 80 g/ha)

CCCNC(=O)c1c(C(F)(F)F)ccc(C(=O)Nc2nnnn2C)c1Cl [Example 1-136]
90%: pest or weed control at 20 g/ha (ABUTH [1]; [24]) | pest or weed control at 80 g/ha (LOLRI) | pest or weed control at 20 g/ha (ECHCG [3]; Echinochloa crus-galli, 504 h) | pest or weed control at 80 g/ha (ALOMY [8]; [25]) | pest or weed control at 80 g/ha (ECHCG [9]) | pest or weed control at 20 g/ha (VIOTR [11]; Viola tricolor, 504 h, dosage 20 g/ha) | pest or weed control at 20 g/ha (MATIN [13]; dosage 20 g/ha) | pest or weed control at 20 g/ha (AMARE [15]) | pest or weed control at 80 g/ha (VERPE [18]) | pest or weed control at 20 g/ha (ALOMY [19]; dosage 20 g/ha)
80%: pest or weed control at 20 g/ha (MATIN [17]) | pest or weed control at 5 g/ha (ECHCG [3]; Echinochloa crus-galli, 504 h, dosage 5 g/ha) | pest or weed control at 20 g/ha (SETVI [7]; Setaria viridis, 504 h, dosage 20 g/ha) | pest or weed control at 80 g/ha (PHBPU [14]) | pest or weed control at 80 g/ha (AVEFA) | pest or weed control at 80 g/ha (SETVI [16]; Setaria viridis, 504 h, dosage 80 g/ha) | pest or weed control at 5 g/ha (ALOMY [19]; dosage 5 g/ha)
100%: pest or weed control at 80 g/ha (ABUTH [1]) | pest or weed control at 20 g/ha (DIGSA [4]; Digitaria sanguinalis, 504 h, dosage 20 g/ha) | pest or weed control at 80 g/ha (DIGSA [4]; Digitaria sanguinalis, 504 h, dosage 80 g/ha) | pest or weed control at 20 g/ha (AMARE [10]; [22]) | pest or weed control at 80 g/ha (AMARE [10]; [26]) | pest or weed control at 80 g/ha (VIOTR [11]; [27]) | pest or weed control at 80 g/ha (MATIN [13]; dosage 80 g/ha)

Cn1nnnc1NC(=O)c1ccc(Br)c(C(=O)NCC(F)F)c1Cl [Example 1-182]
100%: Pre-emergence action against ABUTH (herbicidal activity) (ABUTH [1]) | Pre-emergence action against ABUTH (herbicidal activity in percent) (ABUTH [1]; [24]) | Pre-emergence action against DIGSA in % (DIGSA [4]; dosage 20 g/ha) | Pre-emergence action against DIGSA in % (DIGSA [4]; dosage 80 g/ha) | Post-emergence action against VIOTR in % (VIOTR [6]; 5 g/ha) | Post-emergence action against VIOTR in % (VIOTR [6]; 20 g/ha) | Post-emergence action against SETVI in % (SETVI [7]; dosage 20 g/ha) | Pre-emergence action against ALOMY (herbicidal activity) (ALOMY [8]; pre-emergence) | Pre-emergence action against ECHCG in % (ECHCG [9]) | Pre-emergence action against AMARE in % (AMARE [10]; [22]) | Pre-emergence action against AMARE in % (AMARE [10]; [23]) | Pre-emergence action against VIOTR in % (VIOTR [11]; dosage 80 g/ha) | Pre-emergence action against MATIN in % (MATIN [13]; dosage 80 g/ha) | Pre-emergence action against SETVI in % (SETVI [16]; dosage 20 g/ha) | Pre-emergence action against SETVI in % (SETVI [16]; dosage 80 g/ha) | Post-emergence action against ALOMY in % (ALOMY [19]; dosage 20 g/ha)
90%: Post-emergence action against SETVI in % (SETVI [7]; dosage 5 g/ha) | Pre-emergence action against VIOTR in % (VIOTR [11]; dosage 20 g/ha) | Pre-emergence action against MATIN in % (MATIN [13]; dosage 20 g/ha) | Pre-emergence action against PHBPU in % (PHBPU [14]) | Pre-emergence action against AVEFA in % (AVEFA) | Post-emergence action against ALOMY in % (ALOMY [19]; dosage 5 g/ha)
80%: Pre-emergence action against LOLRI in % (LOLRI) | Post-emergence action against ECHCG in % (ECHCG [3]) | Pre-emergence action against ALOMY (ALOMY [8]; [21])

CCCNC(=O)c1c(Br)ccc(C(=O)Nc2nnnn2CC)c1Cl [Example 2-184]
80%: pest or weed control at 80 g/ha (LOLRI) | pest or weed control at 5 g/ha (ALOMY [19]; dosage 5 g/ha)
90%: pest or weed control at 5 g/ha (ABUTH [20]; dosage 5 g/ha) | pest or weed control at 20 g/ha (ABUTH [20]; dosage 20 g/ha) | pest or weed control at 20 g/ha (ALOMY [8]; Alopecurus myosuroides, pre-emergence, 504 h, 20 g/ha, scored visually after 3 weeks, 100% = plants have died, 0% = like control plants) | pest or weed control at 20 g/ha (MATIN [13]; dosage 20 g/ha) | pest or weed control at 80 g/ha (PHBPU [14]) | pest or weed control at 80 g/ha (AVEFA)
100%: pest or weed control at 80 g/ha (ABUTH [1]) | pest or weed control at 20 g/ha (ABUTH [1]; [24]) | pest or weed control at 20 g/ha (ECHCG [3]; Echinochloa crus-galli, 504 h) | pest or weed control at 80 g/ha (ALOMY [8]; [25]) | pest or weed control at 80 g/ha (ECHCG [9]) | pest or weed control at 20 g/ha (AMARE [10]; [22]) | pest or weed control at 80 g/ha (AMARE [10]; [26]) | pest or weed control at 80 g/ha (VIOTR [11]; [27]) | pest or weed control at 80 g/ha (MATIN [13]; dosage 80 g/ha) | pest or weed control at 20 g/ha (AMARE [15]) | pest or weed control at 80 g/ha (VERPE [18]) | pest or weed control at 20 g/ha (ALOMY [19]; dosage 20 g/ha)
